Assay results from ChEMBL document CHEMBL3046912, “Effectiveness of 1,3-dichloropropene as an alternative to methyl bromide in rotations of tomato (Solanum lycopersicum) and cucumber (Cucumis sativus) in China” (2012).
Active and inactive are the calls of the source. The rule behind the calls is not given here.

Key:
Solanum lycopersicum [1] = test: Increase in plant height of Solanum lycopersicum (tomato) exposed to 400 kg/ha compound fumigation treatment measured 30 days after compound treatment (reference value: 28.4 cm); type: functional
Solanum lycopersicum [2] = test: Increase in plant height of Solanum lycopersicum (tomato) exposed to 400 kg/ha compound fumigation treatment measured 50 days after compound treatment (reference value: 86.2 cm); type: functional
Cucumis sativus [3] = test: Increase in plant height of Cucumis sativus (cucumber) exposed to 400 kg/ha compound fumigation treatment measured 30 days after compound treatment (reference value: 85.6 cm); type: functional
Cucumis sativus [4] = test: Increase in plant height of Cucumis sativus (cucumber) exposed to 400 kg/ha compound fumigation treatment measured 50 days after compound treatment (reference value: 103.2 cm); type: functional
Capsella bursa-pastoris [5] = test: Herbicidal activity against Capsella bursa-pastoris in tomato plants fields exposed to 400 kg/ha compound fumigation treatment assessed as hand weeding time per plot relative to untreated control; type: functional
Capsella bursa-pastoris [6] = test: Herbicidal activity against Capsella bursa-pastoris in cucumber plants fields exposed to 400 kg/ha compound fumigation treatment assessed as hand weeding time per plot relative to untreated control; type: functional
Digitaria sanguinalis [7] = test: Herbicidal activity against Digitaria sanguinalis (hairy crabgrass) in tomato plants fields exposed to 400 kg/ha compound fumigation treatment assessed as hand weeding time per plot relative to untreated control; type: functional
Arenaria serpyllifolia [8] = test: Herbicidal activity against Arenaria serpyllifolia in cucumber plants fields exposed to 400 kg/ha compound fumigation treatment assessed as hand weeding time per plot (reference value: 258.3 hr/ha); type: functional
Digitaria sanguinalis [9] = test: Herbicidal activity against Digitaria sanguinalis (hairy crabgrass) in cucumber plants fields exposed to 400 kg/ha compound fumigation treatment assessed as hand weeding time per plot (reference value: 258.3 hr/ha); type: functional
Capsella bursa-pastoris [10] = test: Herbicidal activity against Capsella bursa-pastoris in cucumber plants fields exposed to 400 kg/ha compound fumigation treatment assessed as hand weeding time per plot (reference value: 258.3 hr/ha); type: functional
Botrytis cinerea = test: Fungicidal activity against Botryotinia fuckeliana-induced withering in tomato plants at 400 kg/ha measured 20 to 60 days post compound treatment; type: functional, organism-based
Meloidogyne incognita [11] = test: Nematicidal activity against Meloidogyne incognita (root-knot nematode) in cucumber growing fields exposed to 400 kg/ha compound fumigation treatment assessed as root galling index measured 20 days after compound treatment (reference value: 8.72 root galling index); type: functional
Solanum lycopersicum [12] = test: Increase in crop yield in Cucumis sativus (cucumber) plants exposed to 400 kg/ha compound fumigation treatment assessed as marketable yield fruit yield (reference value: 65.3 ton/ha); type: functional
Arenaria serpyllifolia [13] = test: Herbicidal activity against Arenaria serpyllifolia in tomato plants fields exposed to 400 kg/ha compound fumigation treatment assessed as hand weeding time per plot (reference value: 243.3 hr/ha); type: functional
Digitaria sanguinalis [14] = test: Herbicidal activity against Digitaria sanguinalis (hairy crabgrass) in tomato plants fields exposed to 400 kg/ha compound fumigation treatment assessed as hand weeding time per plot (reference value: 243.3 hr/ha); type: functional
Capsella bursa-pastoris [15] = test: Herbicidal activity against Capsella bursa-pastoris in tomato plants fields exposed to 400 kg/ha compound fumigation treatment assessed as hand weeding time per plot (reference value: 243.3 hr/ha); type: functional
Phytophthora melonis = test: Fungicidal activity against Phytophthora melonis-induced blight disease in cucumber plants at 400 kg/ha measured 20 to 60 days post compound treatment; type: functional, organism-based
Meloidogyne incognita [16] = test: Nematicidal activity against Meloidogyne incognita (root-knot nematode) in tomato growing fields exposed to 400 kg/ha compound fumigation treatment assessed as root galling index measured 20 days after compound treatment (reference value: 8.51 root galling index); type: functional
Solanum lycopersicum [17] = test: Increase in crop yield in Solanum lycopersicum (tomato) plants exposed to 400 kg/ha compound fumigation treatment assessed as marketable yield fruit yield (reference value: 51.3 ton/ha); type: functional
Arenaria serpyllifolia [18] = test: Herbicidal activity against Arenaria serpyllifolia in cucumber plants fields exposed to 400 kg/ha compound fumigation treatment assessed as hand weeding time per plot relative to untreated control; type: functional
Digitaria sanguinalis [19] = test: Herbicidal activity against Digitaria sanguinalis (hairy crabgrass) in cucumber plants fields exposed to 400 kg/ha compound fumigation treatment assessed as hand weeding time per plot relative to untreated control; type: functional
Arenaria serpyllifolia [20] = test: Herbicidal activity against Arenaria serpyllifolia in tomato plants fields exposed to 400 kg/ha compound fumigation treatment assessed as hand weeding time per plot relative to untreated control; type: functional
Solanum lycopersicum [21] = test: Increase in crop yield in Cucumis sativus (cucumber) plants exposed to 400 kg/ha compound fumigation treatment assessed as medium fruit yield (reference value: 38.6 ton/ha); type: functional
Solanum lycopersicum [22] = test: Increase in crop yield in Solanum lycopersicum (tomato) plants exposed to 400 kg/ha compound fumigation treatment assessed as medium fruit yield (reference value: 32.3 ton/ha); type: functional
Solanum lycopersicum [23] = test: Increase in crop yield in Cucumis sativus (cucumber) plants exposed to 400 kg/ha compound fumigation treatment assessed as large fruit yield (reference value: 19.5 ton/ha); type: functional
Solanum lycopersicum [24] = test: Increase in crop yield in Solanum lycopersicum (tomato) plants exposed to 400 kg/ha compound fumigation treatment assessed as large fruit yield (reference value: 15.2 ton/ha); type: functional
Solanum lycopersicum [25] = test: Increase in crop yield in Cucumis sativus (cucumber) plants exposed to 400 kg/ha compound fumigation treatment assessed as extra-large fruit yield (reference value: 7.2 ton/ha); type: functional
Solanum lycopersicum [26] = test: Increase in crop yield in Solanum lycopersicum (tomato) plants exposed to 400 kg/ha compound fumigation treatment assessed as extra-large fruit yield (reference value: 3.8 ton/ha); type: functional

In the case of CBr [BROMOMETHANE], the Activity (Solanum lycopersicum [1]) is reported as 43.5 cm, the Activity (Solanum lycopersicum [2]) is reported as 118.7 cm and the Activity (Cucumis sativus [3]) is reported as 108.6 cm. The Activity (Cucumis sativus [4]) was 132.6 cm, the Activity (Capsella bursa-pastoris [5]) was 45% and the Activity (Capsella bursa-pastoris [6]) was 45%. The Activity (Digitaria sanguinalis [7]) was 45%, the Time (Arenaria serpyllifolia [8]) was 41.9 hr/ha and the Time (Digitaria sanguinalis [9]) was 41.9 hr/ha. The Time (Capsella bursa-pastoris [10]) was 41.9 hr/ha, the Activity (Botrytis cinerea) was “Active” and the Root_galling_index (Meloidogyne incognita [11]) was 3.24. It also gave a Crop_yield (Solanum lycopersicum [12]) of 101.9 tons/ha, a Time (Arenaria serpyllifolia [13]) of 35.2 hr/ha and a Time (Digitaria sanguinalis [14]) of 35.2 hr/ha. For the same compound, the Time (Capsella bursa-pastoris [15]) was 35.2 hr/ha, the Activity (Phytophthora melonis) was “Active” and the Root_galling_index (Meloidogyne incognita [16]) was 3.54. The Crop_yield (Solanum lycopersicum [17]) was 76.6 tons/ha, the Activity (Arenaria serpyllifolia [18]) was 45% and the Activity (Digitaria sanguinalis [19]) was 45%. It also gave an Activity (Arenaria serpyllifolia [20]) of 45%, a Crop_yield (Solanum lycopersicum [21]) of 55.3 tons/ha and a Crop_yield (Solanum lycopersicum [22]) of 46.6 tons/ha. The Crop_yield (Solanum lycopersicum [23]) was 32.3 tons/ha, the Crop_yield (Solanum lycopersicum [24]) was 21.7 tons/ha and the Crop_yield (Solanum lycopersicum [25]) was 14.3 tons/ha. For the same compound, the Crop_yield (Solanum lycopersicum [26]) was 8.3 tons/ha.
